Test [1] relates to A549 lung cancer cell line. The experiment in a line: Side population by Hoechst 33342 staining and flow cytometry. In kind it is cell-based, human. (In general: A flow cytometer gives signals particle by particle.)
In test [2] the test system is HMLE cells. Kind of test: EMT induction in human mammary epithelial cells. The test is classed as cell-based. As for the experimental part:
Human mammary epithelial cells (HMLE; Dr. Robert A. Weinberg) were plated at a density of about 50% in DMEM/F-12 medium and incubated overnight at 37° C. in a CO2 incubator. The cells were then cultured in inducing medium (DMEM/F-12 (1:1) medium supplemented with insulin, hydrocortisone, 5% FBS, and 2.5 ng/mL TGF-β1) to induce EMT or non-inducing medium (i.e. without TGF-β1). The inducing medium or non-inducing medium was refreshed every 3 days for 12 days. Following EMT treatment, one set of cells were immunostained for E-cadherin, vimentin and fibronectin expression, three widely used EMT markers. Another set of cells was harvested, stained for CD44 and CD24 expression and analyzed by flow cytometry as described in Example 27.
For immunostaining of E-cadherin, vimentin and fibronectin, cells were fixed and permeabilized on the culture plates and incubated with FITC-conjugated antibodies against E-cadherin, vimentin and fibronectin using a standard cell staining protocol. Following removal of unbound antibody, the cells were counterstained with the nuclear dye 4′,6-diamidino-2-phenylindole (DAPI). After staining, phase contrast and fluorescent images of the cells were taken using a fluorescence microscope, equipped with the appropriate filters and a digital camera, using a 100× objective.

Test [3] relates to ALDH1. The experiment in a line: ALDEFLUOR assay with or without DEAB. The test is classed as cell-based, human. As for the experimental part:
Aldehyde dehydrogenase (ALDH1) is a useful marker for isolating primitive stem cell populations including normal human mammary stem and progenitor cells as well as transformed tumor-initiating stem cells. In this example, GI-101A, MCF7, MDA-MB-231, Hs 578T, and SUM139PT breast cancer cell lines were tested for activity of the ALDH1 marker using a commercial assay to detect ALDH1 expression and thereby identify tumor stem cells (the ALDEFLUOR® assay (available from Stemcell™ Technologies, Vancouver BC, CA; see Ginestier et al. (2007) Cell Stem Cell 1(5):555-567)). […] The ALDH substrate fluoresces upon cleavage by ALDH.
ALDEFLUOR® assay fluorescence was excited at 488 nm and fluorescence emission was detected using a standard FITC 530/30 band pass filter. The sorting gates were established using propidium iodide stained cells for viability and the ALDEFLUOR® assay-stained cells treated with DEAB as negative controls.
To supplement the flow cytometric analysis, the presence of ALDH in GI-101A was assessed visually by fluorescence microscopy. ALDEFLUOR® assay-labeled cells, with or without DEAB, were counterstained with the nuclear dye 4′,6-diamidino-2-phenylindole (DAPI). Phase contrast and fluorescent images of the cells were taken using a fluorescence microscope, equipped with the appropriate filters and a digital camera, using a 100× objective.
First an ALDEFLUOR assay was performed on GI-101 cells in the presence or absence of DEAB inhibitor as described in Example 21. The ALDEFLUOR stained cells were then subjected to staining with CD44, CD24 and CD49f antibodies. The ALDEFLUOR stained cells were centrifuged for 10 minutes at 300×g at 4° C. and resuspended to a concentration of 2×10^7 cells per mL in cold staining buffer. 50 μL it of cells were added to 12×75 round bottoms tubes on ice for each stain. 10 μL diluted antibody mixture was added and incubated for 30-45 minutes in an ice bath to minimize release of the Hoechst dye. […] The cells were washed twice with 2 mL staining buffer at 4° C. The cells were resuspended in 400 μL it staining buffer and kept on ice until analyzed by flow cytometry.

Test [4] has as its system mouse bone marrow cells. Kind of test: Side population by Hoechst 33342 staining and flow cytometry.

“Also recorded” adds a separate entry of the source.

Consider `COC(=O)[C@H]1[C@H]2C[C@@H]3c4[nH]c5cc(OC)ccc5c4CCN3C[C@H]2C[C@@H](OC(=O)c2cc(OC)c(OC)c(OC)c2)[C@@H]1OC` [reserpine], for which the side population cells in test [1] (12.5 μM) is given as 1.51±0.1%; in test [1] (25 μM), 0.56±0.08%; in test [1] (50 μM) it was 0.51±0.01%; in test [1] (200 μM), 0.48±0.06%.
In the case of “TGF-β1: transforming growth factor β used to induce EMT”, the “CD44^+/CD24^−/low cells” value in test [2] (2.5 ng/mL, 12 days EMT induction) is 51.9%±3. For the same molecule, the “EMT marker expression (E-cadherin, vimentin, fibronectin)” value in test [2] (12 days post-EMT induction, versus non-induced) is “E-cadherin expression was down-regulated; also recorded: vimentin expression was up-regulated; also recorded: fibronectin expression was up-regulated”.
For `CCN(CC)c1ccc(C=O)cc1` [DEAB], the “ALDH− cells” value in test [3] (CD44/CD24 staining set) and in test [3] (CD44/CD49f staining set) was 99.9% in each case. The “ALDH+ cells” value worked out at 0.09% in test [3] (CD44/CD49f staining set) and 0.09% in test [3] (GI-101 cells, CD44/CD24 staining set).
`COc1ccc(CCN(C)CCCC(C#N)(c2ccc(OC)c(OC)c2)C(C)C)cc1OC` (stereo not shown) [Verapamil]: the entries for the “side population, percent of registered events” value in test [4] (50 μM) and in test [4] (100 μM) were 3.74±0.3% and 1.76±0.1%, respectively.
As to `COc1ccc2c3c([nH]c2c1)[C@H](C=C(C)C)N1C(=O)[C@@H]2CCCN2C(=O)[C@@H]1C3` [FTC, Fumitremorgin C], the side population cells in test [1] (25 μM) turned out to be 1.31±0.2%; in test [1] (50 μM), 0.92±0.2%; in test [1] (100 μM) it was 0.62±0.1%; in test [1] (200 μM) it was 0.46±0.08%.

(Values after patent US20140087362A1 (priority 2012, published 2014).)
